Reference: patent US11161831B2, “Methods and compositions for treatment of muscle wasting, muscle weakness, and/or cachexia” (Baylor College of Medicine, priority 2013, dated 2021)

System: C2Cl2 myotubes
Experiment: C2Cl2 myotubes exposed to conditioned media from C26 or LLC cancer cells
Assay type: cell-based, mouse
Protocol: C2Cl2 myotubes. FIG. 36A. Representative western blots of p-Stat3 and Stat3 in C2Cl2 myotubes that were exposed for different times to conditioned media from C26 colon cancer cells. FIG. 36B. C2Cl2 myotubes were pretreated with the Stat3 inhibitor, C188-9, for 2 hours before they were exposed to conditioned media from C26 or LLC cancer cells. Representative western blots for p-Stat3 or Stat3 are shown. FIG. 36C. C2Cl2 myotubes were treated with C188-9 plus conditioned media from C26 cells for different times. Representative western blots for C/EBPδ and myostatin are shown. FIG. 36D. The average sizes of C2Cl2 myotubes was assessed following incubation with conditioned media of C26 cells with or without C188-9 for 72 hours (mean±SEM; p<0.05).
FIG. 41A. C2Cl2 myotubes were treated with conditioned media from C26 cells with or without C188-9 for 72 hours. A representative western blot showing a decrease in the myosin heavy chain is blocked by C188-9. FIG. 41B. C2Cl2 myotubes were treated with conditioned media from C26 cells with or without C188-9 for 24 hours. Levels of mRNAs of MAFbx/Atrogin-1 and MuRF-1 are shown. FIGS. 41C & 41D. CD2F1 mice bearing C26 tumors were treated with C188-9 for 2 weeks. […] FIG. 41E. […] Results are mean±SEM.
Mouse C2Cl2 myoblasts (ATCC, Manassas, Va.) and LLC cells (Dr. Yi-Ping Li; University of Texas Health Sciences Center, Houston, Tex.) were cultured in DMEM (Cellgro Mediatech, Manassas, Va.), supplemented with 10% FBS (Invitrogen, Carlsbad, Calif.) plus 100 U/ml penicillin and 100 µg/ml streptomycin. C26 cells (a gift from Dr. Vickie Baracos, University of Alberta, Edmonton, Alberta, Canada) were cultured in RPMI 1640 medium (Sigma-Aldrich), supplemented with 10% FBS (Invitrogen, Carlsbad, Calif.), 100 U/ml penicillin, and 100 µg/ml streptomycin.
At >80% confluence, the media was changed to DMEM supplemented with 2% horse serum (Sigma-Aldrich) to induce myoblasts to differentiate into myotubes (Zhang et al., 2011). After 36 h, conditioned media (CM) from cultured C26 or LLC cells was collected and centrifuged (450×g, 5 min, 4° C.); media was diluted 1:5 with 2% horse serum before adding cultured C2Cl2 myotubes (Zhang et al., 2011).

[1] = C26 conditioned media, 72 hours

COc1ccc(S(=O)(=O)Nc2cc(-c3c(O)ccc4ccccc34)c(O)c3ccccc23)cc1 [C188-9]
expressions of C/EBPδ and myostatin increased by conditioned media (C26 conditioned media): suppressed | increased Atrogin and MuRF-1 mRNA expression (C26 conditioned media): suppressed | decrease in sizes of myotubes by conditioned media [1]: prevented the decrease | decreased protein level of myosin heavy chain [1]: blocked | increases in p-Stat3 by C26 or LLC conditioned media (C188-9 added 2 h before, 15 min conditioned media): blocked
